Literature values in patent US20010026813A1, “Extract from scutellariae radix having neuroprotective effects and pharmaceutical preparations containing the same” (priority 2000, published 2001).
Where two headings read alike, the source gives them in different places.

System: 4-VO models

Row | SMILES | defensive level (dose not given) | further results
1 | O=[N+]([O-])c1cccc2c(Br)n[nH]c12 [3-bromo-7-nitroindazole] | 20% | –
2 | O=[N+]([O-])c1cccc2cn[nH]c12 [Example 7-NI] | 17.5% | –
3 | CC1=NN=C(c2ccc(N)cc2)c2cc3c(cc2C1)OCO3 [GYK152466] | 11% | –
4 | COC(=O)[C@@H](N)CCCNC(=N)N[N+](=O)[O-] [L-NAME] | 23% | –
5 | CCNCc1cc(C(C)(C)C)c(O)c(C(C)(C)C)c1 [LY231617] | 25-30% | –
6 | CNC(=O)N1N=C(c2ccc(N)cc2)c2cc3c(cc2CC1C)OCO3 (stereo not drawn) [LY300168] | 23% | –
7 | C[C@]12N[C@H](Cc3ccccc31)c1ccccc12 [MK-801] | – | defensive level (2 mg/kg, i.p.): 24%
8 | NS(=O)(=O)c1cccc2c1c([N+](=O)[O-])cc1nc(O)c(O)nc12 [NBQX] | – | defensive level (30 mg/kg, i.p.): 42%
9 | OC(CN1CCC(Cc2ccc(F)cc2)CC1)c1ccc(Cl)cc1 (stereo not drawn) [eliprodil] | – | defensive level (20 mg/kg, i.p.): 25%
